Activity calls are given as the source filed them. The calls are words filed in the database; no cut-off is given here.
What was measured:
Mus musculus [1] = species on record: Mus musculus; assay: Stimulation of alkaline phosphatase activity in mouse calvarial osteoblasts at 1 pM to 1 uM after 48 hrs by spectrophotometric analysis relative to nifedipine
Calvarial osteoblast [2] = assay: Induction of mineralization in mouse calvarial osteoblasts assessed as increase of mineralized nodules formation at 100 pM after 21 days by alizarin red-S staining based spectrophotometric analysis; type: functional
Calvarial osteoblast [3] = assay: Induction of proliferation of mouse calvarial osteoblasts at 1 pM to 1 uM after 48 hrs; type: functional, cell-based
Mus musculus [4] = assay: Induction of new bone formation in ovariectomized BALB/c mouse model assessed as increase in bone formation rate at 10 mg/kg/day, po qd for 8 weeks by bone histomorphometry analysis (Rvb =0.10 um'3/um'2/day); type: functional
Mus musculus [5] = assay: Induction of new bone formation in ovariectomized BALB/c mouse model assessed as increase in bone formation rate at 5 mg/kg/day, po qd for 8 weeks by bone histomorphometry analysis (Rvb =0.10 um'3/um'2/day); type: functional
Mus musculus [6] = assay: Induction of new bone formation in ovariectomized BALB/c mouse model assessed as increase in mineral apposition rate at 10 mg/kg/day, po qd for 8 weeks by bone histomorphometry analysis (Rvb =0.11 um/day); type: functional
Mus musculus [7] = assay: Induction of new bone formation in ovariectomized BALB/c mouse model assessed as increase in mineral apposition rate at 1 mg/kg/day, po qd for 8 weeks by bone histomorphometry analysis (Rvb =0.11 um/day); type: functional
Mus musculus [8] = assay: Inhibition of osteoclastogenesis in ovariectomized BALB/c mouse model assessed as suppression of TRAP gene expression at 5 to 10 mg/kg/day, po qd for 8 weeks by qPCR analysis; type: functional, organism-based
Mus musculus [9] = assay: Induction of osteoblast differentiation in ovariectomized BALB/c mouse model assessed as upregulation of COL1 mRNA expression at 1 mg/kg/day, po qd for 8 weeks by qPCR analysis; type: functional, organism-based
Mus musculus [10] = assay: Induction of osteoblast differentiation in ovariectomized BALB/c mouse model assessed as upregulation of RUNX2 mRNA expression at 1 mg/kg/day, po qd for 8 weeks by qPCR analysis; type: functional, organism-based
Mus musculus [11] = assay: Induction of osteoblast differentiation in ovariectomized BALB/c mouse model assessed as upregulation of COL1 mRNA expression po administered qd for 8 weeks by qPCR analysis; type: functional, organism-based
Mus musculus [12] = assay: Induction of osteoblast differentiation in ovariectomized BALB/c mouse model assessed as upregulation of RUNX2 mRNA expression po administered qd for 8 weeks by qPCR analysis; type: functional, organism-based
Mus musculus [13] = assay: Inhibition of bone turnover in ovariectomized BALB/c mouse model assessed as reduction in ovariectomy-induced serum osteocalcin levels at 1 to 5 mg/kg/day, po qd for 8 weeks by ELISA relative to control; type: functional, organism-based
Mus musculus [14] = assay: Antiosteoporotic activity in ovariectomized BALB/c mouse model assessed as restoration of ovariectomy-induced reduction in trabecular number at 1 mg/kg/day, po qd for 8 weeks (reference value: 0.12+/-0.02 /mm); type: functional, Trabecula
Mus musculus [15] = assay: Antiosteoporotic activity in ovariectomized BALB/c mouse model assessed as restoration of ovariectomy-induced increase in trabecular separation at 1 mg/kg/day, po qd for 8 weeks (reference value: 0.99+/-0.08mm); type: functional, Trabecula
Mus musculus [16] = assay: Antiosteoporotic activity in ovariectomized BALB/c mouse model assessed as restoration of ovariectomy-induced deterioration of trabecular microarchitecture at 1 to 10 mg/kg/day, po qd for 8 weeks; type: functional, organism-based; settings: Trabecula
Calvarial osteoblast [17] = assay: Induction of osteoblastogenesis in mouse calvarial osteoblasts assessed as increase in BMP2 expression at 100 pM to 10 nM by Western blotting analysis; type: functional, cell-based
Calvarial osteoblast [18] = assay: Induction of osteoblastogenesis in mouse calvarial osteoblasts assessed as increase in RUNX2 expression at 100 pM to 10 nM by Western blotting analysis; type: functional, cell-based
Calvarial osteoblast [19] = assay: Induction of osteoblastogenesis in mouse calvarial osteoblasts assessed as increase in expression of osteocalcin gene at 100 pM by qPCR analysis relative to control; type: functional, cell-based
Calvarial osteoblast [20] = assay: Induction of osteoblastogenesis in mouse calvarial osteoblasts assessed as increase in expression of ALP gene at 100 pM by qPCR analysis relative to control; type: functional, cell-based
Calvarial osteoblast [21] = assay: Induction of osteoblastogenesis in mouse calvarial osteoblasts assessed as increase in expression of BMP2 gene at 100 pM by qPCR analysis relative to control; type: functional, cell-based
Calvarial osteoblast [22] = assay: Induction of osteoblastogenesis in mouse calvarial osteoblasts assessed as increase in expression of osteocalcin gene at 100 pM to 10 nM by qPCR analysis relative to control; type: functional

In the case of `CCOC(=O)C1=C(C)NC2=C(C(=O)CCC2)C1c1cc(C(C)CC)c2oc(=O)c(C(=O)OC)cc2c1` (configuration not stated), the Activity (Mus musculus [1]) is reported as 32%, the Activity (Calvarial osteoblast [2]) is reported as 65% and the Activity (Calvarial osteoblast [3]) is reported as “Active”. For the same molecule, the Activity (Mus musculus [4]) was 0.31 um3/um2/day, the Activity (Mus musculus [5]) was 0.33 um3/um2/day and the Activity (Mus musculus [6]) was 0.276 micrometer/day. For the same molecule, the Activity (Mus musculus [7]) was 0.291 micrometer/day, the inhibition (Mus musculus [8]) was “Active” and the Activity (Mus musculus [9]) was “Active”. The Activity (Mus musculus [10]) was “Active”, the Activity (Mus musculus [11]) was “Dose-dependent effect” and the Activity (Mus musculus [12]) was “Dose-dependent effect”. For the same molecule, the inhibition (Mus musculus [13]) was “Active”, the Activity (Mus musculus [14]) was 0.4 /millimeter and the Activity (Mus musculus [15]) was 0.66 mm. For the same molecule, the Activity (Mus musculus [16]) was “Active”, the Activity (Calvarial osteoblast [17]) was “Active” and the Activity (Calvarial osteoblast [18]) was “Active”. The Activity (Calvarial osteoblast [19]) was “Active”, the Activity (Calvarial osteoblast [20]) was “Active” and the Activity (Calvarial osteoblast [21]) was “Active”. The “fold change (FC)” value (Calvarial osteoblast [22]) was 1.5.
